Results from patent US8372871B2, “Histidinol dehydrogenase inhibitors, and use thereof as medicaments” (priority 2008, dated 2013).
pIC50: −log10 of the molar value.

Tests used:
B. suis = assay: microbe, parasite or virus in culture; assay type: cell-based, Brucella suis; settings: for inhibition at 50 µM / inhibition at 100 µM: Brucella suis, 168 h, read-out: Effects on the growth of B. suis (%) (inhibition of bacterial growth)
[1] = target: B. suis histidinol dehydrogenase (Brucella suis biovar 1, UniProt Q8G2R2); assay: biochemical; assay type: biochemical
Sequence of B. suis histidinol dehydrogenase (Q8G2R2 whole entry, looked up): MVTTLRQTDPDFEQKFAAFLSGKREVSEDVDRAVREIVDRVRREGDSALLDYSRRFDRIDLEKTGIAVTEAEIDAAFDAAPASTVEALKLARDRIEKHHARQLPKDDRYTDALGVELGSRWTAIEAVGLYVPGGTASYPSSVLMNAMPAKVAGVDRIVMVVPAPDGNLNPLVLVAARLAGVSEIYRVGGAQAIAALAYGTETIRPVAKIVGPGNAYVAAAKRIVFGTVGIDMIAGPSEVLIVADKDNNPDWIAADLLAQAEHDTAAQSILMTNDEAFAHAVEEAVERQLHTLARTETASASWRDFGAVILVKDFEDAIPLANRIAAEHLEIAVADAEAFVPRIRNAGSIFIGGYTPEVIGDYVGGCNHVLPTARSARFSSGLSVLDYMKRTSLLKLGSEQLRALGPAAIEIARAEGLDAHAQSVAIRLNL

Row | SMILES | melting point | pIC50 [1] | other results
1 | N[C@@H](Cc1c[nH]cn1)C(=O)Cc1ccc(C#Cc2ccc(-c3ccccc3)cc2)cc1 (hydrate or solvate) | 196 °C (dec.) | – | –
2 | N[C@@H](Cc1c[nH]cn1)C(=O)Cc1ccc(/C=C/c2ccc(C(F)(F)F)cc2)cc1 (hydrate or solvate) [Compound 2l, (3S)-3-amino-4-(1H-imidazol-4-yl)-1-(4-{(E)-2-[4-(trifluoromethyl)phenyl]vinyl}phenyl) butan-2-one dihydrochlorhydrate] | 186 °C (dec.) | – | –
3 | CCCCc1ccc(-c2ccc(CC(=O)[C@@H](N)Cc3c[nH]cn3)cc2)cc1 [Compound 2b, (3S)-3-amino-1-(4′-butylbiphenyl-4-yl)-4-(1H-imidazol-4-yl) butan-2-one dihydrochlorhydrate] | – | 7.40 | inhibition at 50 µM (B. suis): 50%; inhibition at 100 µM (B. suis): 60%
4 | N[C@@H](Cc1c[nH]cn1)C(=O)Cc1ccc(/C=C/Cc2ccccc2)cc1 (hydrate or solvate) [Compound 2m, (3S)-3-amino-4-(1H-imidazol-4-yl)-1-{4-[(1E)-3-phenylprop-1-en-1-yl]phenyl}butan-2-one dihydrochlorhydrate] | 178 to 180 °C | – | –
5 | N[C@@H](Cc1c[nH]cn1)C(=O)Cc1ccc(/C=C/c2ccc(-c3ccccc3)cc2)cc1 (hydrate or solvate) | 200 °C (dec.) | – | –
6 | CC(C)(C)c1ccc(C#Cc2ccc(CC(=O)[C@@H](N)Cc3c[nH]cn3)cc2)cc1 [Compound 3c, (3S)-3-amino-1-{4-[(4-tert-butylphenyl)ethynyl]phenyl}-4-(1H-imidazol-4-yl)butan-2-one dihydrochlorhydrate] | – | 7.19 | inhibition at 50 µM (B. suis): 30%; inhibition at 100 µM (B. suis): 30%
7 | N[C@@H](Cc1c[nH]cn1)C(=O)Cc1ccc(CCc2ccccc2)cc1 (hydrate or solvate) [Compound 2i, (3S)-3-amino-4-(1H-imidazol-4-yl)-1-[4-(2-phenylethyl)phenyl] butan-2-one dihydrochlorhydrate] | 168 to 170 °C | – | –
8 | CCCCc1ccc(-c2ccc(CC(=O)[C@@H](N)Cc3c[nH]cn3)cc2)cc1 (hydrate or solvate) [Compound 2b, (3S)-3-amino-1-(4′-butylbiphenyl-4-yl)-4-(1H-imidazol-4-yl) butan-2-one dihydrochlorhydrate] | 155 °C (dec.) | – | –
9 | N[C@@H](Cc1c[nH]cn1)C(=O)Cc1ccc(/C=C/Cc2ccccc2)cc1 [Compound 2m, (3S)-3-amino-4-(1H-imidazol-4-yl)-1-{4-[(1E)-3-phenylprop-1-en-1-yl]phenyl}butan-2-one dihydrochlorhydrate] | – | 7.52 | –
10 | N[C@@H](Cc1c[nH]cn1)C(=O)Cc1ccc(CCc2ccccc2)cc1 [Compound 2i, (3S)-3-amino-4-(1H-imidazol-4-yl)-1-[4-(2-phenylethyl)phenyl] butan-2-one dihydrochlorhydrate] | – | 7.89 | –
11 | N[C@@H](Cc1c[nH]cn1)C(=O)Cc1ccc(/C=C/c2ccc(C(F)(F)F)cc2)cc1 [Compound 2l, (3S)-3-amino-4-(1H-imidazol-4-yl)-1-(4-{(E)-2-[4-(trifluoromethyl)phenyl]vinyl}phenyl) butan-2-one dihydrochlorhydrate] | – | 7.19 | –
12 | N[C@@H](Cc1c[nH]cn1)C(=O)Cc1ccc(-c2ccc(Oc3ccccc3)cc2)cc1 [Compound 2f, (3S)-3-amino-4-(1H-imidazol-4-yl)-1-(4′-phenoxybiphenyl-4-yl)butan-2-one dihydrochlorhydrate] | – | 7.15 | inhibition at 50 µM (B. suis): 70%; inhibition at 100 µM (B. suis): 90%
13 | N[C@@H](Cc1c[nH]cn1)C(=O)Cc1ccc(-c2ccc3ccccc3c2)cc1 [Compound 2h, (3S)-3-amino-4-(1H-imidazol-4-yl)-1-[4-(2-naphthhyl)phenyl] butan-2-one dihydrochlorhydrate] | – | 7.52 | Inhibition of the growth of the bacteria in liquid medium (B. suis): completely inhibit; inhibition at 50 µM (B. suis): 100%; inhibition at 100 µM (B. suis): 100%
14 | N[C@@H](Cc1c[nH]cn1)C(=O)Cc1ccc(-c2ccc(C(F)(F)F)cc2)cc1 (hydrate or solvate) [Compound 2d, (3S)-3-amino-4-(1H-imidazol-4-yl)-1-[4′-(trifluoromethyl)biphenyl-4-yl]butan-2-one dihydrochlorhydrate] | 149 °C (dec.) | – | –
15 | Cc1ccc(/C=C/c2ccc(CC(=O)[C@@H](N)Cc3c[nH]cn3)cc2)cc1 (hydrate or solvate) [Compound 2k, (3S)-3-amino-4-(1H-imidazol-4-yl)-1-{4-[(E)-2-(4-methylphenyl)vinyl]phenyl}butan-2-one dihydrochlorhydrate] | 200 °C (dec.) | – | –
16 | N[C@@H](Cc1c[nH]cn1)C(=O)Cc1ccc(-c2ccc(-c3ccccc3)cc2)cc1 (hydrate or solvate) | 200 °C (dec.) | – | –

Row | SMILES | melting point | pIC50 [1] | other results
17 | COc1ccc(-c2ccc(CC(=O)[C@@H](N)Cc3c[nH]cn3)cc2)cc1 [Compound 2c, (3S)-3-amino-4-(1H-imidazol-4-yl)-1-(4′-methoxybiphenyl-4-yl)butan-2-one dihydrochlorhydrate] | – | 7.70 | inhibition at 50 µM (B. suis): 30%; inhibition at 100 µM (B. suis): 60%
18 | N[C@@H](Cc1c[nH]cn1)C(=O)Cc1ccc(/C=C/c2ccccc2)cc1 [Compound 2j, (3S)-3-amino-4-(1H-imidazol-4-yl)-1-{4-[(E)-2-phenylvinyl]phenyl}butan-2-one dihydrochlorhydrate] | – | 7.60 | –
19 | COc1ccc(-c2ccc(CC(=O)[C@@H](N)Cc3c[nH]cn3)cc2)cc1 (hydrate or solvate) [Compound 2c, (3S)-3-amino-4-(1H-imidazol-4-yl)-1-(4′-methoxybiphenyl-4-yl)butan-2-one dihydrochlorhydrate] | 210 °C (dec.) | – | –
20 | N[C@@H](Cc1c[nH]cn1)C(=O)Cc1ccc(-c2ccc(Oc3ccccc3)cc2)cc1 (hydrate or solvate) [Compound 2f, (3S)-3-amino-4-(1H-imidazol-4-yl)-1-(4′-phenoxybiphenyl-4-yl)butan-2-one dihydrochlorhydrate] | 198 to 200 °C | – | –
21 | Cc1ccc(-c2ccc(CC(=O)[C@@H](N)Cc3c[nH]cn3)cc2)cc1 [Compound 2a, (3S)-3-amino-4-(1H-imidazol-4-yl)-1-(4′-methylbiphenyl-4-yl)butan-2-one dihydrochlorhydrate] | – | 7.52 | inhibition at 50 µM (B. suis): 30%; inhibition at 100 µM (B. suis): 40%
22 | N[C@@H](Cc1c[nH]cn1)C(=O)Cc1ccc(C#Cc2ccccc2)cc1 (hydrate or solvate) [Compound 3a, (3S)-3-amino-4-(1H-imidazol-4-yl)-1-[4-(phenylethynyl)phenyl] butan-2-one dihydrochlorhydrate] | 194 °C (dec.) | – | –
23 | Cc1ccc(/C=C/c2ccc(CC(=O)[C@@H](N)Cc3c[nH]cn3)cc2)cc1 [Compound 2k, (3S)-3-amino-4-(1H-imidazol-4-yl)-1-{4-[(E)-2-(4-methylphenyl)vinyl]phenyl}butan-2-one dihydrochlorhydrate] | – | 7.40 | Inhibition of the growth of the bacteria in liquid medium (B. suis): completely inhibit; inhibition at 50 µM (B. suis): 100%; inhibition at 100 µM (B. suis): 100%
24 | CCCCCc1ccc(C#Cc2ccc(CC(=O)[C@@H](N)Cc3c[nH]cn3)cc2)cc1 [Compound 3d, (3S)-3-amino-4-(1H-imidazol-4-yl)-1-{4-[(4-pentylphenyl)ethynyl]phenyl}butan-2-one dihydrochlorhydrate] | – | 8.07 | inhibition at 50 µM (B. suis): 30%; inhibition at 100 µM (B. suis): 30%
25 | N[C@@H](Cc1c[nH]cn1)C(=O)Cc1ccc(-c2ccc(Br)cc2)cc1 (hydrate or solvate) | 199 °C (dec.) | – | –
26 | CCCCCc1ccc(C#Cc2ccc(CC(=O)[C@@H](N)Cc3c[nH]cn3)cc2)cc1 (hydrate or solvate) [Compound 3d, (3S)-3-amino-4-(1H-imidazol-4-yl)-1-{4-[(4-pentylphenyl)ethynyl]phenyl}butan-2-one dihydrochlorhydrate] | 184 °C (dec.) | – | –
27 | N[C@@H](Cc1c[nH]cn1)C(=O)Cc1ccc(/C=C/c2ccccc2)cc1 (hydrate or solvate) [Compound 2j, (3S)-3-amino-4-(1H-imidazol-4-yl)-1-{4-[(E)-2-phenylvinyl]phenyl}butan-2-one dihydrochlorhydrate] | 195 °C (dec.) | – | –
28 | Cc1ccc(C#Cc2ccc(CC(=O)[C@@H](N)Cc3c[nH]cn3)cc2)cc1 [Compound 3b, (3S)-3-amino-4-(1H-imidazol-4-yl)-1-{4-[(4-methylphenyl)ethynyl]phenyl}butan-2-one dihydrochlorhydrate] | – | 7.40 | –
29 | Cc1ccc(-c2ccc(CC(=O)[C@@H](N)Cc3c[nH]cn3)cc2)cc1 (hydrate or solvate) [Compound 2a, (3S)-3-amino-4-(1H-imidazol-4-yl)-1-(4′-methylbiphenyl-4-yl)butan-2-one dihydrochlorhydrate] | 203 °C (dec.) | – | –
30 | N[C@@H](Cc1c[nH]cn1)C(=O)Cc1ccc(-c2ccc(C(F)(F)F)cc2)cc1 [Compound 2d, (3S)-3-amino-4-(1H-imidazol-4-yl)-1-[4′-(trifluoromethyl)biphenyl-4-yl]butan-2-one dihydrochlorhydrate] | – | 7.52 | inhibition at 50 µM (B. suis): 70%; inhibition at 100 µM (B. suis): 90%
31 | N[C@@H](Cc1c[nH]cn1)C(=O)Cc1ccc(-c2ccc3ccccc3c2)cc1 (hydrate or solvate) [Compound 2h, (3S)-3-amino-4-(1H-imidazol-4-yl)-1-[4-(2-naphthhyl)phenyl] butan-2-one dihydrochlorhydrate] | 205 °C (dec.) | – | –
32 | Cc1ccc(C#Cc2ccc(CC(=O)[C@@H](N)Cc3c[nH]cn3)cc2)cc1 (hydrate or solvate) [Compound 3b, (3S)-3-amino-4-(1H-imidazol-4-yl)-1-{4-[(4-methylphenyl)ethynyl]phenyl}butan-2-one dihydrochlorhydrate] | 181 °C (dec.) | – | –
